# Assay results from publication PMC10831276, “A viral insulin-like peptide inhibits IGF-1 receptor phosphorylation and regulates IGF1R gene expression” (Molecular Metabolism, 2024).
# Bridge positions count the residues as written; N and C are the ends. Ends that are not written are not given here. I, II: the chains in the order shown.
# Key:
# human IR-A [1] = molecular target: T1, human IR-A (Homo sapiens, UniProt P06213); assay: Whole-cell binding competition assay with 125I-insulin on IM-9 lymphoblasts; design: human IM-9 lymphoblasts, that express IR-A exclusively; host or cells: human IM-9 lymphoblasts (whole cells)
# Method: (§1) For receptor binding studies, human IM-9 lymphoblasts, that express IR-A exclusively, and R^−/IR-B and R^+ murine embryonic fibroblasts were used for a whole-cell receptor-binding assay. Receptor binding assays on IR-A were perfomed accoding to Morcavallo et al. [24]and binding assays on IR-B and IGF1R were performed according to Kosinova et al.. […] Human ^125I-insulin was prepared as described by Asai et al. and human ^125I-IGF-1 was prepared as described in Kertisova et al..
# human IR-A [2] = molecular target: T1, human IR-A; assay: cell-based; design: human IM-9 lymphoblasts, that express IR-A exclusively
# Method: (§2) Insulin or IGF-1 receptor phosphorylation was measured as described in [13]. Briefly, HEK293 cells overexpressing human IR-A, IR-B, or IGF-1R were plated in 96-well tissue culture plates and cultured for 16–20 h at 37 °C, 5 % CO2, and 90 % humidity. […] For antagonism studies, test peptides were pre-mixed with 10 nM IGF-1. After 15 min incubation at 37 °C in humidified atmosphere with 5 % CO2, the cells were fixed with 5 % paraformaldehyde for 20 min at room temperature, washed twice with PBS (pH 7.4) and blocked with 2 % BSA in PBS for 1 h. The plate was washed three times, filled with anti-phospho-IR/IGF1R (Tyr1158) antibody (Millipore) and incubated for 3 h at room temperature, after which the plate was washed four times and filled with goat anti-rabbit secondary antibody (#A16110, ThermoFisher). Following 30 min incubation and another four washes, 0.1 mL of TMB One Solution substrate (#00-2023; Invitrogen) was added to each well. Color development was stopped 10 min later by adding 0.05 mL 1 M HCl.
# human IGF1R [3] = molecular target: T2, human IGF1R (Homo sapiens, UniProt P08069); assay: Whole-cell binding competition assay with 125I-IGF-1 on R+ fibroblasts; design: expressed in transfected cells; host or cells: murine embryonic fibroblasts from IGF1R knockout mice, stably transfected with IGF1R (R+ cells); settings: competition with 125I-IGF-1, R+ cells; mean ± S.D. (n), n ≥ 3; measurement series #; SD
# Method: as §1
# Target sequence in this assay (P08069 31-736): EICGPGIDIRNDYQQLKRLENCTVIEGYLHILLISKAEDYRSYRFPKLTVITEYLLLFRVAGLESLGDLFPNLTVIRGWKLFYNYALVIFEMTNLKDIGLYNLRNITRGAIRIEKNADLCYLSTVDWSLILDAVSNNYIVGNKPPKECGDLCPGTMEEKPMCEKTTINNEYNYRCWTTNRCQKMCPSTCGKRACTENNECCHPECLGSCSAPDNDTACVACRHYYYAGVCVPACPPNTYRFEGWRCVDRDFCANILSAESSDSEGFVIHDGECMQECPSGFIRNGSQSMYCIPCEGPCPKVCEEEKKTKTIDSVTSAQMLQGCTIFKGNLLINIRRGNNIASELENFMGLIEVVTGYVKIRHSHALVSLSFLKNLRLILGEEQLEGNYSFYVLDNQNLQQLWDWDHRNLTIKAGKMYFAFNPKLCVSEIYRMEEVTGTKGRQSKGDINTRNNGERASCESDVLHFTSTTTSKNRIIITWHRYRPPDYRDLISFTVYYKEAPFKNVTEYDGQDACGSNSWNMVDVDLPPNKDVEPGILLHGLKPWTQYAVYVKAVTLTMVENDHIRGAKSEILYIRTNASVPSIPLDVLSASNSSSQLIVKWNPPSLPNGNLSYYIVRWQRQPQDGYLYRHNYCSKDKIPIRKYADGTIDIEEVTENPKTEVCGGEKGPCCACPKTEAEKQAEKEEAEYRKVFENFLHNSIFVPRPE
# Target sequence in this assay (P08069 741-1367): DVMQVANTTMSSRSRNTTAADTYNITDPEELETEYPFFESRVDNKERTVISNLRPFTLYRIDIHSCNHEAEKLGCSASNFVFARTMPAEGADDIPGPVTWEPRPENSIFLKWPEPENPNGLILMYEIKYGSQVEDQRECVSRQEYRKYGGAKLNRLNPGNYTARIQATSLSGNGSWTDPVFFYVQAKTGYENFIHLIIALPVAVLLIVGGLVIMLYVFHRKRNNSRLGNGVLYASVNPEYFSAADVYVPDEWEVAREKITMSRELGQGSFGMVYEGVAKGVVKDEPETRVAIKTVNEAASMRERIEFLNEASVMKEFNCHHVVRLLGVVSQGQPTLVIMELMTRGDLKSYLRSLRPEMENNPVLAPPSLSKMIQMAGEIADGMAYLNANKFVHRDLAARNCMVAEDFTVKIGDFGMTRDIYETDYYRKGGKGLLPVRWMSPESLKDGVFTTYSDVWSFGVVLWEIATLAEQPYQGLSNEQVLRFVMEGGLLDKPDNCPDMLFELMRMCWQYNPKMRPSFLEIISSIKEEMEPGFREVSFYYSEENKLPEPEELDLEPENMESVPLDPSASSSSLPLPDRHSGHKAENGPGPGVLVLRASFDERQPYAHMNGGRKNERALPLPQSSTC
# human IGF1R [4] = molecular target: T2, human IGF1R; assay: cell-based; design: expressed in transfected cells; host or cells: HEK293 cells overexpressing human IGF-1R
# Method: as §2
# Target sequence in this assay (P08069 741-1367): as above
# Target sequence in this assay (P08069 31-736): as the sequence (P08069 31-736) above
# human IR-B = molecular target: T3, human IR-B (Homo sapiens, UniProt P06213); assay: Whole-cell binding competition assay with 125I-insulin on R-/IR-B fibroblasts; settings: competition with 125I-insulin, R-/IR-B cells; mean ± S.D. (n), n ≥ 3; measurement series #; SD
# T3 construct: expressed in transfected cells; host or cells: murine embryonic fibroblasts from IGF1R knockout mice, stably transfected with IR-B (R-/IR-B cells)
# Method: as §1
# R+ cells = assay: BrdU proliferation assay of transfected R+ cells; type: cell-based, mouse; settings: 10 nM IGF-1 for 24 h; BrdU for last 6 h
# Method: R^+ cells (described in 2.4) were seeded into 96-well plates so that they reached ∼50 % confluency after overnight incubation. […] Three hours post transfection, Opti-MEM medium was exchanged for regular culture medium. 24 h post transfection, cells were washed once with PBS and starved in serum free culture medium. After 24 h of starvation, cells were stimulated with IGF-1 (diluted in serum free medium) to reach final concentration of 10 nM IGF-1 per well for another 24 h period (serum free medium only was added to the non-stimulated wells). To determine the rate of proliferation in each well, BrdU Cell Proliferation Assay (Sigma–Aldrich, #QIA58) was used. Manufacturer's instructions were followed, with the BrdU probe being added for the last 6 h of the 24 h stimulation with IGF-1. Absorbance at dual wavelengths of 450–540 nm was measured using a spectrophotometric plate reader. The experiment was repeated at least three times and for each biological replicate, results were expressed as relative change compared to non-stimulated cells transfected with empty vector. Statistical analysis was performed using paired two-tailed Student's t-test.
# IGF1R gene expression = IGF1R gene expression (RT-qPCR) in R+ cells after repeated stimulation with synthetic ligand; type: cell-based, human; settings: 100 nM ligand every 3 h over 24 h, normalised to β-actin, compared to basal, n = 3
# Method: To assess the potential impact of external VILP exposure on IGF1R gene expression, we employed R^+ cells, seeding 30 × 10^4 cells per well. Following a 24-hour incubation period, cells were washed twice with PBS and were subsequently serum-starved for 4 h before sequential stimulation with various ligands (scMFRV-VILP, dcMFRV-VILP, and IGF-1). The cells were stimulated with 100 nM of each ligand every 3 h over a 24-hour period. Post the final stimulation, the cells were snap-frozen and stored at −80 °C.
# Subsequently, the lysates were transferred to microtubes and chloroform in ratio 5:1 (Tri Reagent: chloroform) was added. The mixture was vortexed for 15s, incubated at RT for 5 min and centrifuged for 15 min at 12000g, 4 °C. The upper aqueus phase was transferred to new tubes, 100 % ethanol was added to give a 1:1 volumetric ratio and subsequently the Direct-zol RNA Miniprep Kit (Zymo Research) was used according to the manufacturer's instructions. cDNA synthesis was performed using Maxima™ H Minus cDNA Syntheis Master Mix (ThermoFisher Scientific) according to manufacturer's instructions. The qPCR was performed using Power SYBR® Green PCR Master Mix (Applied Biosystems) according to manufacturer's instructions on QuantStudio 3 (Applied Biosystems). Statistical analysis was performed using ordinary one-way ANOVA followed by Tukey's multiple comparison test.
# C57BL/6 J mice = assay: Insulin tolerance test; type: in vivo, mouse
# Method: All animal studies presented in this study complied with the regulations and ethics guidelines of the NIH and were approved by the Boston College Institutional Animal Care and Use Committee. Insulin tolerance testing was performed on 12 to 17-week-old male C57BL/6 J mice (Jackson Laboratory). Mice were grouped according to their weight before experiment. After 6-hour starvation, mice were injected i.p. with insulin (Humulin, 6 nmol/kg, corresponds to 1.0 U/kg, 1x) (Eli Lilly), scMFRV-VILP (6 nmol/kg, 1x and 60 nmol/kg, 10x), dcMFRV-VILP (60 nmol/kg, 10x), dcLCDV-Sa-VILP (0.3 μmol/kg, 50x), and saline as a control (n = 4–11 per condition). Tail-vein blood glucose was measured until 3 h post-injection using an Infinity glucometer (US Diagnostic Inc.). Statistical analysis was done using Mixed effects analysis - Dunnett's multiple comparisons test.
# IR-B = assay: Insulin/IGF signaling via IR-B in R-/IR-B cells (western blot); type: cell-based, human; settings: 0.1-500 nM, 30 min
# Method: For receptor phosphorylation and downstream signaling experiments, R^−/IR-A, R^−/IR-B and R^+ cells (described in 2.4) were used to explore signaling properties of ligands via specific receptors. Cells were seeded into 24-well plates (10^5 cells per well) in 300 μl of culture medium (described above) and grown overnight. Afterwards, cells were washed twice with PBS and starved in serum-free culture medium for 4 h. After the starvation, cells were washed with pure DMEM medium and incubated with ligand diluted in pure DMEM medium (0, 0.1, 1, 10, 100, 250 and 500 nM) in 37 °C for 30 min. For co-incubation of a VILP with 10 nM insulin/IGF-1, increasing concentrations of the VILP were pre-mixed with insulin or IGF-1 prior stimulation of cells. The reaction was terminated by washing the cells with ice-cold PBS (HyClone) followed by snap freezing in liquid nitrogene. […] Protein concentration in each sample was evaluated using BCA Assay (Thermo Fisher Scientific). Samples were further diluted using sample buffer for SDS-PAGE (final concentration 62.5 mM Tris, 2 % SDS (w/v), 10 % glycerol (v/v). 0.01 % bromphenol blue (w/v), 0.1 M DTT (w/v), pH 6.8 (HCl)) and routinely analyzed using SDS-PAGE and immunoblotting. […] Western blots were quantified using Image Lab 6.0.1 (Bio-Rad). […]
# T1 sequence (P06213 763-1382): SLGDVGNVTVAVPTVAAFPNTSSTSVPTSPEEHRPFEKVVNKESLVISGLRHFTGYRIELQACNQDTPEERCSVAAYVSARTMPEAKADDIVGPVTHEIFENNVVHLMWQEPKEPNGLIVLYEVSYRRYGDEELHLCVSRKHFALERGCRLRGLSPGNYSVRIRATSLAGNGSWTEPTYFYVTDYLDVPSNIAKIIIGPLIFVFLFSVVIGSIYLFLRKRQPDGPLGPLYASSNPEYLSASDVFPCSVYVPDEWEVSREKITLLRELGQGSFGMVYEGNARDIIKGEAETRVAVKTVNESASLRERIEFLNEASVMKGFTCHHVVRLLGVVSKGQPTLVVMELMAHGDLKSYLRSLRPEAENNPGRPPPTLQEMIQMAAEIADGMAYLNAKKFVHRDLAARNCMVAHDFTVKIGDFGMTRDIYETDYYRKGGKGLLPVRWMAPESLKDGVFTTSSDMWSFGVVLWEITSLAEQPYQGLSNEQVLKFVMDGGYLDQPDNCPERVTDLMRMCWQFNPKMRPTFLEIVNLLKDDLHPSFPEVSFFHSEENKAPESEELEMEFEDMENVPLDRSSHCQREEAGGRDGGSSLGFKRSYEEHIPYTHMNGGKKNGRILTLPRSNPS
# T1 sequence (P06213 other isoform, or with tags, fused parts or gaps): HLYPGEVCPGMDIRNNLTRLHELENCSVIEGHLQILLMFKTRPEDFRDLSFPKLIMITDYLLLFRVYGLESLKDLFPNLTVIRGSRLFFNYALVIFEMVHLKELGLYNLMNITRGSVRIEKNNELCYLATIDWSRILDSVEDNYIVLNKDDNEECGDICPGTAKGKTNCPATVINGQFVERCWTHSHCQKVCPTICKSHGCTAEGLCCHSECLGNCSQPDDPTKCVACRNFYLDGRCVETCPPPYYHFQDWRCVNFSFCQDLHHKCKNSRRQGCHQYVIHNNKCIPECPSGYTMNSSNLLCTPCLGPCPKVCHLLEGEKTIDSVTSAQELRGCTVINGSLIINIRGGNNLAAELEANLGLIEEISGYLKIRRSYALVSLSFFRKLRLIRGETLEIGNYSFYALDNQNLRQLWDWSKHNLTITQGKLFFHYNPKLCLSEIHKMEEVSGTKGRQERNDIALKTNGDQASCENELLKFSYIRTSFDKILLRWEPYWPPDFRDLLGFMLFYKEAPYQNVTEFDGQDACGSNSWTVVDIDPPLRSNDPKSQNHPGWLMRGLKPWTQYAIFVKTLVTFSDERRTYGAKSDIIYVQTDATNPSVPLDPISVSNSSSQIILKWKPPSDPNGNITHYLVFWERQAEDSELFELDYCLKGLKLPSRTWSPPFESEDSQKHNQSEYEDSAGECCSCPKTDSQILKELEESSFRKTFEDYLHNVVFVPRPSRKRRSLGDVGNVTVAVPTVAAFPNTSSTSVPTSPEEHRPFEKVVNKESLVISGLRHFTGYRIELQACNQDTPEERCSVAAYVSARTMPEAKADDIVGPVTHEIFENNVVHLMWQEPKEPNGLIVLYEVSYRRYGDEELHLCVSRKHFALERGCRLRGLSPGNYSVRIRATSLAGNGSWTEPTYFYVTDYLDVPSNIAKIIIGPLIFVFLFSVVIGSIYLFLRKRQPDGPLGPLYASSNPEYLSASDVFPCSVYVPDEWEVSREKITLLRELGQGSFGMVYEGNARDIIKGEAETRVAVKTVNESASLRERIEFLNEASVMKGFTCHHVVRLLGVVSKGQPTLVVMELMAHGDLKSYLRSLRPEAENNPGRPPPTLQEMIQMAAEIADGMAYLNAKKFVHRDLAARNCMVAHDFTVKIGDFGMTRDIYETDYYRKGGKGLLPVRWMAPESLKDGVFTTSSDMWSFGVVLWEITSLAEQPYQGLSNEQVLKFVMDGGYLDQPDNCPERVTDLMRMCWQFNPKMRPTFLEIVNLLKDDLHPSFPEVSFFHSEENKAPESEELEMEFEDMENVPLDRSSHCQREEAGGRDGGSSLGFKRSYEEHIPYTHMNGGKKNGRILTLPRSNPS
# T3 sequence (P06213 28-758 limits assumed): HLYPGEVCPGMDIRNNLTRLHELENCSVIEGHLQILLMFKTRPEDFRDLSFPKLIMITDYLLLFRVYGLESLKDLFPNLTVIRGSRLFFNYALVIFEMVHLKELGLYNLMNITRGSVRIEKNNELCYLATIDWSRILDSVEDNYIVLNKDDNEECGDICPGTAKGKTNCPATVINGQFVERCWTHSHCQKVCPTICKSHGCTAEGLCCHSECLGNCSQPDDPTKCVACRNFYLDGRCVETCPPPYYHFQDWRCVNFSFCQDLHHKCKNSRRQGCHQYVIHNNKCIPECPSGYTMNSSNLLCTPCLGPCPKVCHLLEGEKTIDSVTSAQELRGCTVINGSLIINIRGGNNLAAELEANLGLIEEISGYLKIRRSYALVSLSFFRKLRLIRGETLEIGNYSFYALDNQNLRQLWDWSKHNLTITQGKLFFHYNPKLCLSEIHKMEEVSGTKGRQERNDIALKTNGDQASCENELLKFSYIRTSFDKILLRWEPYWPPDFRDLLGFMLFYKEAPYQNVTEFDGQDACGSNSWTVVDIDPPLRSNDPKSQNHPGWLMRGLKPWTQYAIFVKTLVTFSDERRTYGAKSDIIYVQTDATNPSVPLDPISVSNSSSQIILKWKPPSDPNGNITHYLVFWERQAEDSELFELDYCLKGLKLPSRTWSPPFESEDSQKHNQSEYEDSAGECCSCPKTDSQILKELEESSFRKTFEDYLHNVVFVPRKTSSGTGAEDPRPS
# T3 sequence (P06213 763-1382 limits assumed): as the sequence (P06213 763-1382) above
substance,measurement,setting,value
"I: ILAQTLCGSELVDALELVCGEYGGIYRPPK / II: KIVDVCCTTKGCNYMDLKQYCN (disulfide I:7-II:7, I:19-II:21, II:6-II:12) [dcLCDV-Sa]",Kd,"human IR-A [1]; competition with 125I-insulin, IM-9 cells, mean ± S.D. (n), n ≥ 3 binding curves each in duplicate, measurement series #, SD",487 ± 287 nM
same,EC50,human IR-A [2],198 nM
same,Kd,human IGF1R [3],639 ± 453 nM
same,EC50,human IGF1R [4],282 nM
same,Kd,human IR-B,994 ± 55 nM
"Human IGF-1: human insulin like growth factor-1, supplied by Merck [reference compound]",increase in cell proliferation in cells transfected with empty vector,R+ cells,2.2 fold
same,decrease of IGF-1R gene expression,IGF1R gene expression,neither dcMFRV-VILP nor IGF-1 demonstrated a similar effect
"I: VLTDKLCGKDLVDALLLVCGEKGVYSPKMG / II: GIADVCCTSANGCDLNFLEKFCKT (disulfide I:7-II:7, I:19-II:22, II:6-II:13) [dcMFRV]","affinity on IR-A, fold stronger than IGF-1",human IR-A [1]; ratio of Kd values,1.5 fold
same,"fold difference in IR-A affinity, dcMFRV-VILP higher than the sc form",human IR-A [1]; ratio of Kd values,about 3 fold
same,decrease of IGF-1R gene expression,IGF1R gene expression,neither dcMFRV-VILP nor IGF-1 demonstrated a similar effect
same,glucose-lowering effect,"C57BL/6 J mice; 60 nmol/kg (10x) i.p., dcMFRV-VILP",comparable effect to scMFRV-VILP (1x)
same,maximum response of IR-B autophosphorylation compared to 10 nM insulin,IR-B,comparable maximum response
"Human insulin: human insulin, supplied by Merck; Humulin (Eli Lilly) in the insulin tolerance test [reference compound]",maximum decrease in blood glucose levels,"C57BL/6 J mice; 6 nmol/kg (1x) i.p., male C57BL/6 J mice, 6 h starved",~60%
